35 compounds from ChEMBL document CHEMBL4376834, “Discovery of 4H-Chromen-4-one Derivatives as a New Class of Selective Rho Kinase (ROCK) Inhibitors, which Showed Potent Activity in ex Vivo Diabetic Retinopathy Models” (J Med Chem, 2019) can be followed below.

Test [1] can be described thus: Inhibition of human PKA using Kemptide as substrate incubated for 40 mins in presence of [gamma-33P]ATP by radiometric scintillation counting analysis.
For test [2], the target named is Rho-associated protein kinase 1 (Homo sapiens, UniProt Q13464). In words: Inhibition of recombinant human ROCK1 (17 to 535 residues) using […] as substrate incubated for 40 mins in presence of [gamma-33P]ATP and 10 uM ATP by radiometric scintillation counting analysis.
Test [3] deals with Rho-associated protein kinase 2 (Homo sapiens, UniProt O75116). In words: Inhibition of recombinant human ROCK2 (11 to 552 residues) using KEAKEKRQEQIAKR as substrate incubated for 40 mins in presence of [gamma-33P]ATP and 10 uM ATP by radiometric scintillation counting analysis.
Chain of Rho-associated protein kinase 2 (O75116 whole entry, the tested form may be a part): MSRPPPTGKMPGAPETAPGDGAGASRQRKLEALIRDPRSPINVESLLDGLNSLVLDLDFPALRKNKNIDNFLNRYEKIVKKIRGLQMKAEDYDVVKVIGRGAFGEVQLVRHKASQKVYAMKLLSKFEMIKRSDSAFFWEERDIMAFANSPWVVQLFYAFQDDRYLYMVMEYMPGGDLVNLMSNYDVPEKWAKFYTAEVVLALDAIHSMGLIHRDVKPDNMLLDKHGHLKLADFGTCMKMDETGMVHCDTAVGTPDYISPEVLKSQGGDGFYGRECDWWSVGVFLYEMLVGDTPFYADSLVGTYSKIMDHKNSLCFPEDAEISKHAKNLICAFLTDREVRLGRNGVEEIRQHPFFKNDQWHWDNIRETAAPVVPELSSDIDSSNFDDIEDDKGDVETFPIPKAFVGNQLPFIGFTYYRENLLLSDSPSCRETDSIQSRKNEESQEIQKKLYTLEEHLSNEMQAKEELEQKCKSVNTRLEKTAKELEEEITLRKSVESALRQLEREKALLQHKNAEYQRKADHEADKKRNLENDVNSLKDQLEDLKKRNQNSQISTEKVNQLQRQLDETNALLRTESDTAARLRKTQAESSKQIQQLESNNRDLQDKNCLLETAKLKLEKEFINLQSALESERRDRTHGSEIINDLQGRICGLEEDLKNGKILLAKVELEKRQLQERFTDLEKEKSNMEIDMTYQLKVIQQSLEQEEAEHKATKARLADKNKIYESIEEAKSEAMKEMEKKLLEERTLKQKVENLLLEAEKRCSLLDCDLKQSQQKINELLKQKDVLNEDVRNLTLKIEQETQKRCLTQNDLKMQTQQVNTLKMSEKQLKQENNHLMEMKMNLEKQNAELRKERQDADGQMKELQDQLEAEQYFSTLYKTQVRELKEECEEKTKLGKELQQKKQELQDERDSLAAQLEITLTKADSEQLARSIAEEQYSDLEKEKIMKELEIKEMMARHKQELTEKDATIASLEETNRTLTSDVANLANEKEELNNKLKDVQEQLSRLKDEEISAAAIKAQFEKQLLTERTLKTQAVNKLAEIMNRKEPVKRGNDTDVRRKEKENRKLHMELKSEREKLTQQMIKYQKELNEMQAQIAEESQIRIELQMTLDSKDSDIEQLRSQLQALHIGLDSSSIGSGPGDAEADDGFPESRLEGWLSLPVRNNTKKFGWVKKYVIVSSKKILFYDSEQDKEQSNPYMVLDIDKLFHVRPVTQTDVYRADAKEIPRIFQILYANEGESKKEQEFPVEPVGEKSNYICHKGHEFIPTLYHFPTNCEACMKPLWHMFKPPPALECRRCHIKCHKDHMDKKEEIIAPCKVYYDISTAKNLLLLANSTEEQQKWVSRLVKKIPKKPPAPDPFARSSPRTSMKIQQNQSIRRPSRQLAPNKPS

Chain of Rho-associated protein kinase 1 (Q13464 whole entry, the tested form may be a part): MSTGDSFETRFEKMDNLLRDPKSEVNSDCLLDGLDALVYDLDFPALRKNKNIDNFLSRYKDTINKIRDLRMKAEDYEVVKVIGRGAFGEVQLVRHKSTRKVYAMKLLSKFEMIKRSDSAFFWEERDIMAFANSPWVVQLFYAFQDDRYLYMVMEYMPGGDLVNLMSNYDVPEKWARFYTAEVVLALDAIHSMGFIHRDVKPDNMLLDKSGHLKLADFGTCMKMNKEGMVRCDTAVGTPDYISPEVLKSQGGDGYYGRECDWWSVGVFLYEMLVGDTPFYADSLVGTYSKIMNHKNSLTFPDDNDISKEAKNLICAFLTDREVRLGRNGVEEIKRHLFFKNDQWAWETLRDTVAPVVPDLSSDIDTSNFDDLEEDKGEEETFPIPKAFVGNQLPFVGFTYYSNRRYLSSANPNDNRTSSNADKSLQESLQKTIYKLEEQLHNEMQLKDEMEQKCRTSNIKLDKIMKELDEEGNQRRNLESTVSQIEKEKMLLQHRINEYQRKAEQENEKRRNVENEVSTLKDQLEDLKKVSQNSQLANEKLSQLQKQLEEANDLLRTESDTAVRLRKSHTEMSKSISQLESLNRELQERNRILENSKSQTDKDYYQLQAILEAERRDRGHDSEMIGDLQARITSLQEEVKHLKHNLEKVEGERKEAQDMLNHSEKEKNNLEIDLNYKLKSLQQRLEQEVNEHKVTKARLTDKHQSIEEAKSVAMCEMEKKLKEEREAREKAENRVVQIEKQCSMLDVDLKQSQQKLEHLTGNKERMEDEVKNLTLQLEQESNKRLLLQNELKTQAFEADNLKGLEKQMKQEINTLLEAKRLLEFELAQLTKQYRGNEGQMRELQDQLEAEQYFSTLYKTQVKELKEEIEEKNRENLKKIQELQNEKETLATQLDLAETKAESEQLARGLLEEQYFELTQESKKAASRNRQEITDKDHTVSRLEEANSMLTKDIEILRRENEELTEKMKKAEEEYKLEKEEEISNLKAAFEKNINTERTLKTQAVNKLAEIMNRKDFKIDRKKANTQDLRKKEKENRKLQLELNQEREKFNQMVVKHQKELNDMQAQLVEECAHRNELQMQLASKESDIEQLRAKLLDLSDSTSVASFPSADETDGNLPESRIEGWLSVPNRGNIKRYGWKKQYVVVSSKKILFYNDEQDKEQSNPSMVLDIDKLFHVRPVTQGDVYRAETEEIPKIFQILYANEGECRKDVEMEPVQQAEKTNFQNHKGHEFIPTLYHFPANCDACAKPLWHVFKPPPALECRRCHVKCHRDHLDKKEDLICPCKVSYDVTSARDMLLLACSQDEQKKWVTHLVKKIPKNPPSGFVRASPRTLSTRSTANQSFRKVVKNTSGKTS

What is called IC50 is the concentration that inhibits the measured activity by half. Consider `O=C(COc1ccc2c(=O)ccoc2c1)Nc1cccc(NC(=O)c2cccc([N+](=O)[O-])c2)c1`, for which the IC50 is over 10000 nM in test [1], 528 nM in test [2] and 41 nM in test [3].
Consider `Nc1cccc(C(=O)Nc2cccc(NC(=O)COc3ccc4c(=O)ccoc4c3)c2)c1`, for which the IC50 in test [1] was over 10000 nM; in test [2], 670 nM; in test [3], 58 nM.
Take `CN(C)c1ccc(C(=O)Nc2ccc(CNC(=O)COc3ccc4c(=O)ccoc4c3)cc2)cc1`: the 50% inhibitory concentration (IC50) is over 10000 nM in test [1], over 10000 nM in test [2] and 999 nM in test [3].
Turning to `O=C(COc1ccc2c(=O)ccoc2c1)Nc1cccc(NS(=O)(=O)c2ccc(C(F)(F)F)cc2)c1`, the IC50 was over 10000 nM in test [1], over 10000 nM in test [2] and 6890 nM in test [3].
With `O=C(COc1ccc2c(=O)ccoc2c1)Nc1cccc(NC(=O)c2cnc(C(F)(F)F)s2)c1`, the IC50 in test [1] was over 10000 nM; in test [2], 160 nM; in test [3] it was 10 nM.
As for `COc1ccc(C(=O)Nc2cccc(NC(=O)COc3ccc4c(=O)ccoc4c3)c2)cc1`, the IC50 in test [1] was over 10000 nM; in test [2] it was 18 nM; in test [3], 7 nM.
Turning to `CC(C)(C)c1cc(C(=O)Nc2cccc(NC(=O)COc3ccc4c(=O)ccoc4c3)c2)no1`, the IC50 in test [1] was over 10000 nM; in test [2] it was 101 nM; in test [3], 5 nM.
In the same order, the values of `O=C(COc1ccc2c(=O)ccoc2c1)Nc1cccc(NC(=O)c2ccc(Br)cc2)c1` are over 10000 nM, 303 nM and 49 nM.
In the same order, the values of `Cc1cc(NC(=O)COc2ccc3c(=O)ccoc3c2)cc(NC(=O)c2ccc(N(C)C)cc2)c1C` are over 10000 nM, 3950 nM and 374 nM.
Regarding `N#Cc1ccc(C(=O)Nc2cccc(NC(=O)COc3ccc4c(=O)ccoc4c3)c2)cc1`, the IC50 was over 10000 nM in test [1], 123 nM in test [2] and 15 nM in test [3].
Turning to `Cc1ccc(NC(=O)c2ccc(N(C)C)cc2)cc1NC(=O)COc1ccc2c(=O)ccoc2c1`, the IC50 in test [1] was over 10000 nM; in test [2] it was over 10000 nM; in test [3] it was 3530 nM.
Regarding `CN(C)c1ccc(C(=O)Nc2cccc(NS(=O)(=O)COc3ccc4c(=O)ccoc4c3)c2)cc1`, the IC50 in test [1] was over 10000 nM; in test [2], 117 nM; in test [3] it was 27 nM.
In the same order, the values of `CN(C)c1ccc(C(=O)Nc2cc(F)cc(NC(=O)COc3ccc4c(=O)ccoc4c3)c2)cc1` are over 10000 nM, 49 nM and 22 nM.
In the same order, the values of `CC(C)(C)c1ccc(S(=O)(=O)Nc2cccc(NC(=O)COc3ccc4c(=O)ccoc4c3)c2)cc1` are over 10000 nM, over 10000 nM and 899 nM.
In the case of `O=C(COc1ccc2c(=O)ccoc2c1)Nc1cccc(NC(=O)c2ccc([N+](=O)[O-])cc2)c1`, the IC50 in test [1] was 9340 nM; in test [2] it was 67 nM; in test [3] it was 15 nM.
Regarding `Cc1nc(C(=O)Nc2cccc(NC(=O)COc3ccc4c(=O)ccoc4c3)c2)cs1`, the IC50 in test [1] was over 10000 nM; in test [2] it was 473 nM; in test [3], 33 nM.
With `NCc1ccc(C(=O)Nc2cccc(NC(=O)COc3ccc4c(=O)ccoc4c3)c2)cc1`, the half-maximal inhibitory concentration (IC50) was over 10000 nM in test [1], 532 nM in test [2] and 66 nM in test [3].
Turning to `CN(C)c1ccc(S(=O)(=O)Nc2cccc(NC(=O)COc3ccc4c(=O)ccoc4c3)c2)cc1`, the results for the IC50 in test [1], in test [2] and in test [3] were over 10000 nM, 803 nM and 263 nM, respectively.
With `O=C(COc1ccc2c(=O)ccoc2c1)Nc1cccc(NS(=O)(=O)c2ccc(OC(F)(F)F)cc2)c1`, the IC50 was over 10000 nM in test [1], 6440 nM in test [2] and 1280 nM in test [3].
In the same order, the values of `CN(C)c1ccc(C(=O)Nc2ccc(NC(=O)COc3ccc4c(=O)ccoc4c3)cc2C(F)(F)F)cc1` are over 10000 nM, over 10000 nM and 7100 nM.
In the case of `Nc1ccc(C(=O)Nc2cccc(NC(=O)COc3ccc4c(=O)ccoc4c3)c2)cc1`, the IC50 is over 10000 nM in test [1], 802 nM in test [2] and 83 nM in test [3].
As for `CCOc1ccc(C(=O)Nc2cccc(NC(=O)COc3ccc4c(=O)ccoc4c3)c2)cc1`, the half-maximal inhibitory concentration (IC50) in test [1] was over 10000 nM; in test [2], 17 nM; in test [3], 9 nM.
In the same order, the values of `Cn1ccc(S(=O)(=O)Nc2cccc(NC(=O)COc3ccc4c(=O)ccoc4c3)c2)n1` are over 10000 nM, over 10000 nM and 1340 nM.
In the same order, the values of `Cc1cc(C(=O)Nc2cccc(NC(=O)COc3ccc4c(=O)ccoc4c3)c2)ccc1C(F)(F)F` are over 10000 nM, 460 nM and 43 nM.
For `CN(C)c1ccc(C(=O)Nc2ccc(NC(=O)COc3ccc4c(=O)ccoc4c3)cc2)cc1` the same measures were over 10000 nM, 1050 nM and 302 nM.
As for `O=C(COc1ccc2c(=O)ccoc2c1)Nc1cccc(NC(=O)c2ccc(C(=O)O)cc2)c1`, the results for the IC50 in test [1], in test [2] and in test [3] were over 10000 nM, 6890 nM and 2030 nM, respectively.
In the same order, the values of `CN(C)c1ccc(C(=O)Nc2cc(NC(=O)COc3ccc4c(=O)ccoc4c3)cc(C(F)(F)F)c2)cc1` are over 10000 nM, over 10000 nM and over 10000 nM.
Take `COC(=O)c1ccc(C(=O)Nc2cccc(NC(=O)COc3ccc4c(=O)ccoc4c3)c2)cc1`: the values for the IC50 in test [1], in test [2] and in test [3] were over 10000 nM, 72 nM and 29 nM, respectively.
As for `Cc1ccc(NC(=O)COc2ccc3c(=O)ccoc3c2)cc1NC(=O)c1ccc(N(C)C)cc1`, the figures for the IC50 in test [1], in test [2] and in test [3] were over 10000 nM, 1040 nM and 169 nM, respectively.
In the same order, the values of `O=C(COc1ccc2c(=O)ccoc2c1)Nc1cccc(NC(=O)c2ccc(OC(F)(F)F)cc2)c1` are over 10000 nM, 869 nM and 77 nM.
In the same order, the values of `Cc1cc(C(=O)Nc2cccc(NC(=O)COc3ccc4c(=O)ccoc4c3)c2)no1` are over 10000 nM, 68 nM and 5 nM.
For `CN(C)c1ccc(C(=O)Nc2cc(Br)cc(NC(=O)COc3ccc4c(=O)ccoc4c3)c2)cc1` the same measures were over 10000 nM, over 10000 nM and 4560 nM.
As for `Cc1c(NC(=O)COc2ccc3c(=O)ccoc3c2)cccc1NC(=O)c1ccc(N(C)C)cc1`, the half-inhibitory concentration (IC50) in test [1], in test [2] and in test [3] was over 10000 nM in each case.
As to `Cc1cc(NC(=O)COc2ccc3c(=O)ccoc3c2)cc(NC(=O)c2ccc(N(C)C)cc2)c1`, the IC50 in test [1], in test [2] and in test [3] was over 10000 nM in each case.
For `Cc1cc(NC(=O)COc2ccc3c(=O)ccoc3c2)ccc1NC(=O)c1ccc(N(C)C)cc1`, the IC50 in test [1] is over 10000 nM; in test [2] it was over 10000 nM; in test [3] it was 4210 nM.
